Assay results as given in patent US11247965B2 (VenatoRx Pharmaceuticals, Inc., priority 2017, dated 2022).
Like-named read-outs stand apart in the source and are kept apart here.

Experiments:
[1] = In vitro cytotoxicity, MTT cell viability assay in HepG2 cells; format: cell-based; settings: human
Procedure: To evaluate antiviral selectivity, the cytotoxic activity of each compound was determined using a standard cell viability assay performed on the parental HepG2 cell line. Cell viability was determined by measuring the conversion of 3-(4,5-dimethylthiazol-2-yl)-2,5-diphenyltetrazolium bromide (MTT) to the insoluble formazan salt crystal that occurs in live cells. Briefly, HepG2 cells were seeded in 96-well plates at a density of 20,000 cells per well in EMEM+10% FBS (complete growth medium) and allowed to adhere overnight in a 37° C., 5% CO2 humidified incubator. The next day, test agents were prepared by performing 8 half-log10 serial dilutions in 100% DMSO at 200× the final desired concentration in the assay. Compounds were tested over a range of concentrations from 30 μM to 1.0 nM in the assay. HepG2 cells were incubated in the presence of various concentrations of CAMs for 7 days in a 37° C., 5% CO2 humidified incubator. At the completion of the 7-day incubation period, MTT reagent was added to each well and the mixture was incubated for an additional 3-4 hours. At the completion of the incubation period, all wells were aspirated to remove the culture medium. The formazan crystals were solubilized from the cell monolayers with 100% DMSO. Plates were briefly mixed on an orbital shaker and absorbance was measured at 492 nm using a Perkin-Elmer EnVision multi-label plate reader. All absorbance values were converted to a percentage of the signal obtained from the vehicle treated controls. Absorbance values at 492 nm are directly proportional to the number of viable cells present in the sample. A CC50 value (cytotoxic concentration that results in loss of 50% cell viability) was calculated from the dose-response curve by 4-parameter, non-linear regression analysis using the GraphPad Prism software. The positive control compound, staurosporine, reduced the viability of HepG2 cells in a dose-dependent manner (CC50=100 nM).

[2] = test system: HBV replication in HepAD38 cells; assay: Anti-HBV activity in HepAD38 cells, extracellular HBV DNA by QPCR; format: cell-based, HBV (genotype D, serotype ayw); settings: Hepatitis B virus, HePAD38, 168 h
Procedure: The anti-HBV activity of the Capsid Assembly Modulators (CAMs) was evaluated in a cell based assay utilizing the human hepatoma cell line HepAD38 (Ladner, S K., et al., 1998). HepAD38 cells were derived from the parental line, HepG2, that were stably transfected with a construct containing an HBV genome (genotype D, serotype ayw) under the control of a tetracycline repressible CMV promoter. Upon removal of tetracycline, viral pre-genomic RNA (pgRNA) and mRNAs are expressed and infectious viral particles are assembled and secreted into the culture medium providing a reliable, robust system to measure multiple steps of the HBV life cycle. Disruption of capsid formation results in reduced levels of DNA-containing virus particles that are released into the culture supernatant. To quantify the effect of CAMs on HBV replication, we developed a sensitive QPCR-based assay that measures extracellular HBV DNA levels upon treatment of HepAD38 cells with various concentrations of test compounds.
HepAD38 cells were maintained in DMEM/F12 medium containing 10% FBS, 400 μg/mL G418 and 0.3 μg/mL tetracycline (tet+medium) to maintain repression of HBV replication. To evaluate each compound, HepAD38 cells were seeded into 24-well collagen coated culture plates (Corning BioCoat) at a density of 200,000 cells per well in 1 mL of tet+medium and allowed to adhere overnight at 37° C., 5% CO2 in a humidified incubator. The following day, test articles were subjected to half-logo serial dilutions, ranging from 30 μM to 10 nM, in 100% DMSO at 200× the desired final assay concentration. Tetracycline was removed from the cells by aspirating the tet+medium and washing the cells once with growth medium lacking tetracycline (tet-). Various concentrations of each compound were added to the appropriate wells (1:200 dilution) and the plates were returned to the incubator. Following 7 days of incubation, culture supernatants were harvested and HBV DNA levels were evaluated by QPCR and compared to the vehicle treated control wells (i.e. DMSO alone).
To quantify HBV DNA levels, cell culture supernatants were diluted 1:10 in sterile, nuclease-free water (Gibco). The diluted supernatants were subsequently added to a PCR master mix containing 1× Roche Light Cycler Master Mix, 0.5 μM forward primer, 0.5 μM reverse primer (Fwd:
0.2 μM Roche Universal Probe Library Probe 25. The volume was brought to 20 μL with nuclease-free water and amplification of the HBV target sequence was performed using a Roche LightCycler 480 QPCR instrument. PCR extended out to 45 cycles with each cycle consisting of a denaturation step at 95° C. for 10 sec., followed by an annealing step at 60° C. for 10 sec. and a brief extension step at 72° C. for 1 sec.
Extracellular HBV DNA levels, expressed in copies/mL, were determined by comparison to a standard curve (10^2-10^9 copies/mL) using the Roche LightCycler analysis software. These values were subsequently converted to percent inhibition of HBV replication by dividing the HBV DNA levels in the experimental samples with those obtained from the vehicle control (˜1-2×10^5 copies/mL). Potency, expressed as an EC50 (the effective concentration required to inhibit […] of HBV replication), was calculated from the dose-response curve using a 4-parameter non-linear regression analysis (GraphPad Prism). The nucleoside analog inhibitor entecavir was used as a positive control to validate each assay run. The EC50 value of entecavir in the HepAD38 assay was 0.5 nM, as previously reported in the literature.

[3] = read-out: Anti-HBV EC50, HepAD38 cells, extracellular HBV DNA by QPCR, 7 days of incubation

In the case of `Cc1cc(NC(=O)c2ccc(Cl)c(C(F)(F)C(=O)N3CC[C@@H](O)[C@H](O)C3)c2)ccc1F` (racemic) [Example 56, (±)-4-chloro-3-(2-(3,4-dihydroxypiperidin-1-yl)-1,1-difluoro-2-oxoethyl)-N-(4-fluoro-3-methylphenyl)benzamide], the CC50 at 7 days ([1]; Cytotoxicity CC50) is reported as greater than 30 µM and the EC50 [2, 3] is reported as less than 5 µM.

In the case of `CCC(C)NC(=O)C(F)(F)c1cc(C(=O)Nc2ccc(F)c(F)c2)ccc1F` (stereo not shown) [Example 1, 3-(2-(sec-butylamino)-1,1-difluoro-2-oxoethyl)-N-(3,4-difluorophenyl)-4-fluorobenzamide], the CC50 at 7 days ([1]; Cytotoxicity CC50) is reported as 5 to 30 µM and the EC50 [2, 3] is reported as less than 5 µM.

`O=C(Nc1ccc(F)c(F)c1)c1ccc(F)c(C(F)(F)C(=O)N2CCC(O)CC2)c1` [Example 2, 3-(1,1-difluoro-2-(4-hydroxypiperidin-1-yl)-2-oxoethyl)-N-(3,4-difluorophenyl)-4-fluorobenzamide] showed a CC50 at 7 days ([1]; Cytotoxicity CC50) of 5 to 30 µM and an EC50 [2, 3] of less than 5 µM.

With `O=C(Nc1ccc(F)c(F)c1)c1ccc(F)c(C(F)(F)C(=O)N[C@H]2CCOC2)c1` [Example 3, (S)-3-(1,1-difluoro-2-oxo-2-((tetrahydrofuran-3-yl)amino)ethyl)-N-(3,4-difluorophenyl)-4-fluorobenzamide] the CC50 at 7 days ([1]; Cytotoxicity CC50) was 5 to 30 µM and the EC50 [2, 3] was 5 to 30 µM.

`O=C(Nc1ccc(F)c(F)c1)c1ccc(F)c(C(F)(F)C(=O)N2CCOCC2)c1` [Example 4, 3-(1,1-difluoro-2-morpholino-2-oxoethyl)-N-(3,4-difluorophenyl)-4-fluorobenzamide] showed a CC50 at 7 days ([1]; Cytotoxicity CC50) of 5 to 30 µM and an EC50 [2, 3] of 5 to 30 µM.

In the case of `O=C(Nc1ccc(F)c(F)c1)c1ccc(F)c(C(F)(F)C(=O)NC2CCOCC2)c1` [Example 5, 3-(1,1-difluoro-2-oxo-2-((tetrahydro-2H-pyran-4-yl)amino)ethyl)-N-(3,4-difluorophenyl)-4-fluorobenzamide], the CC50 at 7 days ([1]; Cytotoxicity CC50) is reported as 5 to 30 µM and the EC50 [2, 3] is reported as 5 to 30 µM.

Molecule `O=C(Nc1ccc(F)c(F)c1)c1ccc(F)c(C(F)(F)C(=O)NCC2COCCO2)c1` (stereo not shown) [Example 6, 3-(2-(((1,4-dioxan-2-yl)methyl)amino)-1,1-difluoro-2-oxoethyl)-N-(3,4-difluorophenyl)-4-fluorobenzamide] has a CC50 at 7 days ([1]; Cytotoxicity CC50) of 5 to 30 µM and an EC50 [2, 3] of 5 to 30 µM.

With `CC(C)NC(=O)C(F)(F)c1cc(C(=O)Nc2ccc(F)c(F)c2)ccc1F` [Example 7, 3-(1,1-difluoro-2-(isopropylamino)-2-oxoethyl)-N-(3,4-difluorophenyl)-4-fluorobenzamide] the CC50 at 7 days ([1]; Cytotoxicity CC50) was 5 to 30 µM and the EC50 [2, 3] was 5 to 30 µM.

Molecule `O=C(Nc1ccc(F)c(F)c1)c1ccc(F)c(C(F)(F)C(=O)NC2CCCCC2)c1` [Example 8, 3-(2-(cyclohexylamino)-1,1-difluoro-2-oxoethyl)-N-(3,4-difluorophenyl)-4-fluorobenzamide] has a CC50 at 7 days ([1]; Cytotoxicity CC50) of 5 to 30 µM and an EC50 [2, 3] of 5 to 30 µM.

Molecule `Cc1ccc(C(=O)Nc2ccc(F)c(F)c2)cc1C(F)(F)C(=O)NC(C)C` [Example 9, 3-(1,1-difluoro-2-(isopropylamino)-2-oxoethyl)-N-(3,4-difluorophenyl)-4-methylbenzamide] has a CC50 at 7 days ([1]; Cytotoxicity CC50) greater than 30 µM and an EC50 [2, 3] greater than 30 µM.

Work on `Cc1ccc(C(=O)Nc2ccc(F)c(F)c2)cc1C(F)(F)C(=O)N1CCC(O)CC1` [Example 10, 3-(1,1-difluoro-2-(4-hydroxypiperidin-1-yl)-2-oxoethyl)-N-(3,4-difluorophenyl)-4-methylbenzamide] yielded a CC50 at 7 days ([1]; Cytotoxicity CC50) of 5 to 30 µM and an EC50 [2, 3] of 5 to 30 µM.

Work on `O=C(Nc1ccc(F)c(F)c1)c1ccc(F)c(C(F)(F)C(=O)N2CCCCC2)c1` [Example 11, 3-(1,1-difluoro-2-oxo-2-(piperidin-1-yl)ethyl)-N-(3,4-difluorophenyl)-4-fluorobenzamide] yielded a CC50 at 7 days ([1]; Cytotoxicity CC50) of 5 to 30 µM and an EC50 [2, 3] of 5 to 30 µM.

`O=C(Nc1ccc(F)c(F)c1)c1ccc(F)c(C(F)(F)C(=O)N2CC[C@H](O)C2)c1` [Example 12, (S)-3-(1,1-difluoro-2-(3-hydroxypyrrolidin-1-yl)-2-oxoethyl)-N-(3,4-difluorophenyl)-4-fluorobenzamide] gave a CC50 at 7 days ([1]; Cytotoxicity CC50) of 5 to 30 µM and an EC50 [2, 3] of 5 to 30 µM.

For `O=C(Nc1ccc(F)c(F)c1)c1ccc(F)c(C(F)(F)C(=O)N2CC[C@H](CO)C2)c1` [Example 13, (S)-3-(1,1-difluoro-2-(3-(hydroxymethyl)pyrrolidin-1-yl)-2-oxoethyl)-N-(3,4-difluorophenyl)-4-fluorobenzamide], the CC50 at 7 days ([1]; Cytotoxicity CC50) was 5 to 30 µM and the EC50 [2, 3] was 5 to 30 µM.

Molecule `Cc1cc(NC(=O)c2cccc(C(F)(F)C(=O)N3CCC(O)CC3)c2)ccc1F` [Example 14, 3-(1,1-difluoro-2-(4-hydroxypiperidin-1-yl)-2-oxoethyl)-N-(4-fluoro-3-methylphenyl)benzamide] has a CC50 at 7 days ([1]; Cytotoxicity CC50) of 5 to 30 µM and an EC50 [2, 3] of less than 5 µM.

With `O=C(Nc1ccc(F)c(F)c1)c1ccc(F)c(C(F)(F)C(=O)N2CCCC(O)C2)c1` (stereo not shown) [Example 15, 3-(1,1-difluoro-2-(3-hydroxypiperidin-1-yl)-2-oxoethyl)-N-(3,4-difluorophenyl)-4-fluorobenzamide] the CC50 at 7 days ([1]; Cytotoxicity CC50) was 5 to 30 µM and the EC50 [2, 3] was less than 5 µM.

`Cn1cc(C(=O)Nc2ccc(F)c(Cl)c2)cc1C(F)(F)C(=O)NC(C)(C)C` [Example 139, 5-(2-(tert-butylamino)-1,1-difluoro-2-oxoethyl)-N-(3-chloro-4-fluorophenyl)-1-methyl-1H-pyrrole-3-carboxamide] showed an EC50 [2, 3] of less than 5 µM.

Work on `Cc1cc(NC(=O)c2ccc(F)c(C(F)(F)C(=O)N3CCn4c(cnc4C(F)(F)F)C3)c2)ccc1F` [Example 312, 3-(1,1-difluoro-2-oxo-2-(3-(trifluoromethyl)-5,6-dihydroimidazo[1,5-a]pyrazin-7(8H)-yl)ethyl)-4-fluoro-N-(4-fluoro-3-methylphenyl)benzamide] yielded an EC50 [2, 3] of less than 5 µM.

Molecule `Cc1cc(NC(=O)c2ccc(F)c(C(F)(F)C(=O)N3[C@@H]4CC[C@H]3c3sc(N)nc3C4)c2)ccc1F` [Example 313, 3-(2-((5R,8S)-2-amino-5,6,7,8-tetrahydro-4H-5,8-epiminocyclohepta[d]thiazol-9-yl)-1,1-difluoro-2-oxoethyl)-4-fluoro-N-(4-fluoro-3-methylphenyl)benzamide] has an EC50 [2, 3] of less than 5 µM.

With `C=C1[C@H](CO)[C@@H](O)C[C@@H]1n1cnc2c(=O)[nH]c(N)nc21` [entecavir, reference compound] the EC50 ([2]; positive control, HepAD38 cells, 7 days incubation, extracellular HBV DNA, read-out: EC50 in the HepAD38 assay) was 0.0005 µM.

`CN[C@@H]1C[C@H]2O[C@@](C)([C@@H]1OC)n1c3ccccc3c3c4c(c5c6ccccc6n2c5c31)C(=O)NC4` [staurosporine, reference compound] gave a CC50 at 7 days ([1]; positive control, HepG2 cells, 7 days incubation, MTT, read-out: CC50, viability of HepG2 cells) of 0.1 µM.
